Results published in patent US10688088B2 (priority 2015, dated 2020).

Test system: M. tuberculosis H37 Rv (ATCC 27294)
Test: MIC determination in medium 7H9 by Alamar Blue (MABA) method and FIC synergism, standard strain H37Rv
Format: cell-based, Mycobacterium tuberculosis

OC(c1cc(C(F)(F)F)nc2c(C(F)(F)F)cccc12)C1CCCCN1 (centres unmarked) [Mefloquine, mefloquine]
MIC 2: MIC of the substance tested in combination (combination MEF + CPX): 0.62 | MIC 2: MIC of the substance tested in combination (combination MEF + LVX): 0.62 | MIC 2: MIC of the substance tested in combination (combination MFL + GAT): 0.12 | MIC 2: MIC of the substance tested in combination (combination MFL + INH): 0.10 | MIC 2: MIC of the substance tested in combination (combination MFL + LYN): 0.62 | MIC 2: MIC of the substance tested in combination (combination MFL + MOX): 0.15 | MIC 2: MIC of the substance tested in combination (combination MFL + OFX): 0.62 | MIC 2: MIC of the substance tested in combination (combination MFL + PYR): 3.12 | MIC 2: MIC of the substance tested in combination (combination MFL + SPR): 0.12

COc1c(N2CCNC(C)C2)c(F)cc2c(=O)c(C(=O)O)cn(C3CC3)c12 (centres unmarked) [GAT, gatifloxacin]
MIC 1: MIC of the substance tested alone: 0.12 | MIC 2: MIC of the substance tested in combination (combination MFL + GAT): 0.12

CC[C@@H](CO)NCCN[C@@H](CC)CO [ETB, ethambutol]
MIC 1: MIC of the substance tested alone: 1.25 | MIC 2: MIC of the substance tested in combination (combination MFL + ETB): 1.25

C[C@@H]1CN(c2c(F)c(N)c3c(=O)c(C(=O)O)cn(C4CC4)c3c2F)C[C@H](C)N1 [SPR, sparfloxacin]
MIC 1: MIC of the substance tested alone: 0.12 | MIC 2: MIC of the substance tested in combination (combination MFL + SPR): 0.12

O=C(O)c1cn(C2CC2)c2cc(N3CCNCC3)c(F)cc2c1=O [CPX, ciprofloxacin]
MIC 1: MIC of the substance tested alone: 0.62 | MIC 2: MIC of the substance tested in combination (combination MEF + CPX): 0.62

COc1c(N2C[C@@H]3CCCN[C@@H]3C2)c(F)cc2c(=O)c(C(=O)O)cn(C3CC3)c12 [MOX, moxifloxacin]
MIC 1: MIC of the substance tested alone: 0.25 | MIC 2: MIC of the substance tested in combination (combination MFL + MOX): 0.15

CC(=O)NC[C@H]1CN(c2ccc(N3CCOCC3)c(F)c2)C(=O)O1 [LYN, linezolid]
MIC 1: MIC of the substance tested alone: 0.62 | MIC 2: MIC of the substance tested in combination (combination MFL + LYN): 0.62

C[C@H]1COc2c(N3CCN(C)CC3)c(F)cc3c(=O)c(C(=O)O)cn1c23 [LVX, levofloxacin]
MIC 1: MIC of the substance tested alone: 0.62 | MIC 2: MIC of the substance tested in combination (combination MEF + LVX): 0.62

CC1COc2c(N3CCN(C)CC3)c(F)cc3c(=O)c(C(=O)O)cn1c23 (centres unmarked) [OFX, ofloxacin]
MIC 1: MIC of the substance tested alone: 1.25 | MIC 2: MIC of the substance tested in combination (combination MFL + OFX): 0.62

NNC(=O)c1ccncc1 [INH, isoniazid]
MIC 1: MIC of the substance tested alone: 0.20 | MIC 2: MIC of the substance tested in combination (combination MFL + INH): 0.10

NC(=O)c1cnccn1 [PYR, pyrazinamide]
MIC 1: MIC of the substance tested alone: 100 | MIC 2: MIC of the substance tested in combination (combination MFL + PYR): 3.12
